This is an account of results in PMC2783590 (Nature chemical biology, 2009).

The structures appear in SMILES notation.

For assay [1], the system named is HA-asAkt1/2/3 (Thr308, Ser473) phosphorylation. The format is cell-based, Human. As to conditions: then 2.5 µM PrINZ 30 min; for hyperphosphorylation induced by PrINZ (Thr308 and Ser473): pre-treatment 10 min; for PrINZ induced Thr308 phosphorylation / PrINZ induced hyperphosphorylation at Ser473: pre-treatment 10 min (10 µM BX-795, 2.5 µM PP242).
Assay [2] relates to Akt membrane localization. Kind of assay: Immunofluorescence of Akt in untransfected HEK293 cells. The format is cell-based, Human.
The test system of assay [3] is myr-HA-asAkt1 (Thr308, Ser473) phosphorylation. It is filed as cell-based, Human. To be noted: 2.5 µM PIK90 10 min, then 2.5 µM PrINZ 30 min.
Another assay relates to Akt. To be noted: cited from earlier work.
In the next assay the target is myr-HA-wtAkt2 (Homo sapiens, UniProt P31751). Kind of assay: In vitro IP kinase assay for Akt variants. It is filed as biochemical. To be noted: myr-HA-wtAkt2 expressed in HEK293T cells, immunoprecipitated; 50 µM ATP.
The next assay concerns the target myr-HA-asAkt3 (Homo sapiens, UniProt Q9Y243, M225G). Kind of assay: In vitro IP kinase assay for Akt variants. To be noted: myr-HA-asAkt3 expressed in HEK293T cells, immunoprecipitated; 50 µM ATP. The format is biochemical.
The next assay has as its target myr-HA-wtAkt1 (Homo sapiens, UniProt P31749). Kind of assay: In vitro IP kinase assay for Akt variants. It is filed as biochemical. To be noted: myr-HA-wtAkt1 expressed in HEK293T cells, immunoprecipitated; 50 µM ATP.
Assay [4] concerns HA-asAkt1 and flag-wtAkt1 (Thr308, Ser473) phosphorylation. The format is cell-based, Human. As to conditions: 30 min, various concentrations.
In a further assay the target is myr-HA-asAkt2 (Homo sapiens, UniProt P31751, M229G). Kind of assay: In vitro IP kinase assay for Akt variants. To be noted: myr-HA-asAkt2 expressed in HEK293T cells, immunoprecipitated; 50 µM ATP. The format is biochemical.
The target in a further assay is myr-HA-wtAkt3 (Homo sapiens, UniProt Q9Y243). Kind of assay: In vitro IP kinase assay for Akt variants. It is filed as biochemical. As to conditions: myr-HA-wtAkt3 expressed in HEK293T cells, immunoprecipitated; 50 µM ATP.
For the next assay, the target named is myr-HA-asAkt1 (Homo sapiens, UniProt P31749, M227G). Kind of assay: In vitro IP kinase assay for Akt variants. It is filed as biochemical. To be noted: myr-HA-asAkt1 expressed in HEK293T cells, immunoprecipitated; 50 µM ATP.
The subject of assay [5] is Akt (Thr308, Ser473) and GSK3β (Ser9) phosphorylation. The format is cell-based, Human. As to conditions: serum-starved HEK293, 20 min drug then 50 ng/ml IGF-1 10 min.
Assay [6] concerns GSK3β (Ser9) phosphorylation. Kind of assay: HEK293 cells transfected with myr-HA-asAkt1, immunoblotting. It is filed as cell-based, Human. To be noted: myr-HA-asAkt1, 30 min, various concentrations. (In western blotting, separated proteins are transferred to a membrane and probed.)
The subject of assay [7] is myr-HA-asAkt1-KD or myr-HA-asAkt2-KD (Thr308, Ser473) phosphorylation. Kind of assay: HEK293 cells expressing kinase dead. It is filed as cell-based, Human. To be noted: 30 min, 2.5 µM PrINZ or 10 µM 3-IB-PP1.
Assay [8] relates to HA-asAkt1 (Thr308, Ser473) phosphorylation. Kind of assay: HEK293 cells transfected with HA-asAkt1, immunoblotting. It is filed as cell-based, Human. To be noted: 30 min, serially diluted inhibitor.
For the next assay, the system named is 3T3-Akt1 tumor. To be noted: 3T3-Akt1 xenograft; cited from earlier work.
In the next assay the test system is MiaPaCa-2 tumor. As to conditions: MiaPaCa-2 xenograft; cited from earlier work.
The test system of another assay is PC-3 tumor. As to conditions: PC-3 xenograft; cited from earlier work.
The test system of a further assay is 220 purified kinases. Kind of assay: SelectScreen profiling, whole panel. To be noted: 1 µM. It is filed as biochemical.
Assay [9] has as its system Akt (Thr308) and rpS6 (Ser240/244) phosphorylation in L6 cells. Kind of assay: Insulin stimulated L6 cells, immunoblotting. As to conditions: serum-starved, 20 min drug then 100 nM insulin 10 min. It is filed as cell-based.

Sequence of myr-HA-wtAkt2 (P31751 whole entry): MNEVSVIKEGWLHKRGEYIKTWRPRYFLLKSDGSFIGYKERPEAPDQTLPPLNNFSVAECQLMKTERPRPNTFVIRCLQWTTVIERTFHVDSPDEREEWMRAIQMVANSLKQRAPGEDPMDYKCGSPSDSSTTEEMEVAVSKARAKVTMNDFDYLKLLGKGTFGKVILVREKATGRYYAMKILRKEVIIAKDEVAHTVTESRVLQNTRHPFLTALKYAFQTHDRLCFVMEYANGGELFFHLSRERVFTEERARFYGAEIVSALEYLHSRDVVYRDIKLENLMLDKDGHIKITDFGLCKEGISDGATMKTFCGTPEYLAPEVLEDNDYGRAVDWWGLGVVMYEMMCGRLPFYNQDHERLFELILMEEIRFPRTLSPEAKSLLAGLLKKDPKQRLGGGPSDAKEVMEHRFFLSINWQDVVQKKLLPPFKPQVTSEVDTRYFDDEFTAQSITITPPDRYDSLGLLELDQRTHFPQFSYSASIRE
Sequence of myr-HA-asAkt3 (Q9Y243 whole entry M225G): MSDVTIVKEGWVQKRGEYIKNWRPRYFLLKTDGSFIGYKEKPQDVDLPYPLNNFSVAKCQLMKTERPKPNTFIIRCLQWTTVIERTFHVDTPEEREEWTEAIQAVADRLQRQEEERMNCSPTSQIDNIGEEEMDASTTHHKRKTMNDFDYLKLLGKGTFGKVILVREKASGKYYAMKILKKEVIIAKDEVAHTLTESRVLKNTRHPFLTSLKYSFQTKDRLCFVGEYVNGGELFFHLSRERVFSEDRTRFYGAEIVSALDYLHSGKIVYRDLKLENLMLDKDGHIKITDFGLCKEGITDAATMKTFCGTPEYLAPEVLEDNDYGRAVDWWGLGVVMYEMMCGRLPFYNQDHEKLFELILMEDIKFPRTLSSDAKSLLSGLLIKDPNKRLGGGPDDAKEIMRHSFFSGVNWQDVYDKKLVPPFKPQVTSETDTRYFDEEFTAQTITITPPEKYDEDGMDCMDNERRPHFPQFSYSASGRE
Sequence of myr-HA-asAkt1 (P31749 whole entry M227G): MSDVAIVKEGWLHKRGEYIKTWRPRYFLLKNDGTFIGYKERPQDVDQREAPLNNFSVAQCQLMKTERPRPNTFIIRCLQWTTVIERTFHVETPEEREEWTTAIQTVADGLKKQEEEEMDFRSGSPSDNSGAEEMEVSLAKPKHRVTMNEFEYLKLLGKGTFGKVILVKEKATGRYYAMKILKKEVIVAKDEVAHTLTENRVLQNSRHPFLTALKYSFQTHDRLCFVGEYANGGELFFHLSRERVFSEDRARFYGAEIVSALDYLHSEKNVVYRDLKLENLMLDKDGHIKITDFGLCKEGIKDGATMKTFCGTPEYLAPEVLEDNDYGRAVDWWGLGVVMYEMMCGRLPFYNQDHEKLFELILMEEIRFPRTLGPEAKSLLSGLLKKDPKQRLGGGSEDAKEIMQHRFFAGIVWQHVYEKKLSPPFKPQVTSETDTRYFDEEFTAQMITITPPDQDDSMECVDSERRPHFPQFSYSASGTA
Sequence of myr-HA-asAkt2 (P31751 whole entry M229G): as the sequence (P31751 whole entry) above, with M229G counted along it
Sequence of myr-HA-wtAkt1 (P31749 whole entry): as the sequence (P31749 whole entry M227G) above, with G227M counted along it
Sequence of myr-HA-wtAkt3 (Q9Y243 whole entry): as the sequence (Q9Y243 whole entry M225G) above, with G225M counted along it

On to `COc1ccc2c(c1OC)N=C(NC(=O)c1cccnc1)N1CCN=C21` [PIK90], for which the “hyperphosphorylation induced by PrINZ (Thr308 and Ser473)” value in assay [1] is listed as “significantly attenuated”. In assay [2] (2.5 µM PIK90 10 min before 2.5 µM A-443654 15 min), the “A-443654 induced translocation and Thr308 phosphorylation of Akt” value is reported as “inhibited”. For the same compound, the “hyperphosphorylation on myr-HA-asAkt1” value in [3] is “not inhibited”.

`CCn1c(-c2nonc2N)nc2c(C#CC(C)(C)O)ncc(OC[C@H]3CCCNC3)c21` [GSK690693, 4-(2-(4-amino-1,2,5-oxadiazol-3-yl)-1-ethyl-7-{[(3S)-3-piperidinylmethyl]oxy}-1H-imidazo[4,5-c]pyridin-4-yl)-2-methyl-3-butyn-2-ol]: the Akt hyperphosphorylation result in the assay with Akt is given as “induces Akt hyperphosphorylation”.

Regarding `O=c1[nH]c2ccccc2n1C1CCN(Cc2ccc(-c3nc4cc5nc[nH]c5cc4nc3-c3ccccc3)cc2)CC1` [Akti-1,2], in [1], the “hyperphosphorylation induced by PrINZ (Thr308 and Ser473)” value is “dose-dependent inhibition”.

For the compound `CCCc1cc(-c2cncc(OC[C@@H](N)Cc3c[nH]c4ccccc34)c2)cc2c(C)n[nH]c12` [PrINZ], on myr-HA-wtAkt2, the “IC50 (nM) wtAkt2” value is on record as “did not inhibit”. Also, the “IC50 (nM) asAkt3” value against myr-HA-asAkt3 is “low nanomolar range”. In addition, the “IC50 (nM) wtAkt1” value against myr-HA-wtAkt1 is listed as “did not inhibit”. Besides, in [4], the “Thr308 and Ser473 phosphorylation after immunoprecipitation” value was “induced only on HA-asAkt1”. The “IC50 (nM) asAkt2” value at myr-HA-asAkt2 is “low nanomolar range”. For the same compound, the “IC50 (nM) wtAkt3” value on myr-HA-wtAkt3 is on record as “did not inhibit”. Moreover, on myr-HA-asAkt1, the “IC50 (nM) asAkt1” value is “low nanomolar range”. Further, in [5], the “Akt phosphorylation at Thr308 and Ser473” value is “unperturbed”; the “phosphorylation on GSK3β at Ser9” value is recorded as “unperturbed”. Besides, the “phosphorylation level of Ser9 on GSK3β” value in [6] was “decreased”. Besides, the “hyperphosphorylation on Thr308 and Ser473 of kinase dead mutants” value in [7] was “induced striking hyperphosphorylation”. For the same compound, in assay [8], the HA-asAkt1 hyperphosphorylation result is listed as “induced”.

As for `Cc1n[nH]c2ccc(-c3cncc(OC[C@@H](N)Cc4c[nH]c5ccccc45)c3)cc12` [A-443654], the tumor growth result with 3T3-Akt1 tumor, in the assay on MiaPaCa-2 tumor and in the assay with PC-3 tumor was “inhibit the growth” each time. In addition, the “location of Akt” value in assay [2] (2.5 µM, 15 min, no growth factor stimulation) is “translocation of Akt to the plasma membrane”. Also, in assay [5], the “Akt phosphorylation at Thr308 and Ser473” value was “induced”. Moreover, in assay [5], the “phosphorylation on GSK3β at Ser9” value was “potently inhibited”.

Turning to `O=C(NCCCNc1nc(Nc2cccc(NC(=O)N3CCCC3)c2)ncc1I)c1cccs1` [BX-795], in [1], the “PrINZ induced Thr308 phosphorylation” value was “significant decrease” and the “PrINZ induced hyperphosphorylation at Ser473” value was “reduced”. Moreover, the “selectivity in panel of 220 kinases” value in the assay with 220 purified kinases is “selective for only PDK1 within the PI3K-mTORC1 pathway”.

As to `CC(C)n1nc(-c2cc3cc(O)ccc3[nH]2)c2c(N)ncnc21` [PP242], in [1], the “PrINZ induced Thr308 phosphorylation” value is recorded as “unaffected” and the “PrINZ induced hyperphosphorylation at Ser473” value was “completely inhibited”.

With `COc1ccccc1N1CCN(c2ncnc3[nH]nc(Br)c23)CC1` [DG2], in assay [9], the “Akt phosphorylation at Thr308 and Ser473” value is reported as “does not induce”.

Consider `CC(C)(C)n1nc(Cc2cccc(I)c2)c2c(N)ncnc21` [3-IB-PP1], for which, in [5], the “Akt phosphorylation at Thr308 and Ser473” value was “unperturbed”; the “phosphorylation on GSK3β at Ser9” value is given as “unperturbed”. Further, in assay [6], the “phosphorylation level of Ser9 on GSK3β” value was “decreased”. The “hyperphosphorylation on Thr308 and Ser473 of kinase dead mutants” value in assay [7] is recorded as “induced striking hyperphosphorylation”. The HA-asAkt1 hyperphosphorylation result in [8] is “induced”.
